From patent US11786492B2, “Therapeutic agent for phosphodiesterase inhibition and its related disorders” (Novalead Pharma Inc, priority 2017, dated 2023)

Columns and labels:
PDE2A = PDE2A (Homo sapiens, UniProt O00408); assay: Fluorescence polarization assay PDE2A; assay type: biochemical; conditions: substrate cGMP
Protocol: (§1) An experiment to check inhibition of various subtypes of the target Phosphodiesterase (PDE) enzyme in in-vitro assay was performed. […] PDE1A, PDE2A, PDE4A, PDE4B, PDE4C, PDE4D, PDE5A, PDE7A, PDE9A, PDE10A.

PDE4B = PDE4B (Homo sapiens, UniProt Q07343); assay: Fluorescence polarization assay PDE4B; assay type: biochemical; conditions: substrate cAMP
Protocol: as §1

HaCaT cells [1] = assay: Keratinocyte (HaCaT) proliferation, MTT assay; assay type: cell-based, human
Protocol: An experiment to check keratinocyte proliferation inhibitory activity of selected compounds of Formula-I was performed to establish its application in skin disorders related to keratinocyte hyper-proliferation. HaCaT cells, a human immortalized cell line derived from keratinocytes, representing hyper-proliferating keratinocytes was investigated for anti-proliferative potential of the selected compounds by MTT assay.

human PBMCs = assay: Cell viability of human PBMCs, Alamar blue; assay type: cell-based
Protocol: (§2) Fresh human blood from healthy volunteer was collected in anticoagulant (5 mM) ethylene diamine tetra acetic acid (EDTA) containing tubes. The growth medium used was RPMI-1640 medium (with 3% FBS) and incubated at 37° C. for 60 mins in a 5% CO2 incubator with vehicle used as 1% DMSO. The cell viability was checked at various time points using Alamar blue and fluorescence readings were taken at excitation of 544 nm and emission of 590 nm.

Human IL-17A = assay: IL-17A release from stimulated PBMCs, ELISA; assay type: cell-based; conditions: PMA+Ionomycin, 18 hrs
Protocol: as §2
(§3) PBMCs were stimulated with different stimulators as follows: • a. Cells were exposed to stimulator LPS at 100 ng/mL for 18 hrs to stimulate TNF-α, IL-6, IFN-γ, IL10, IL-1β • b. Cells were exposed to stimulator IFN-γ+LPS at 100 ng/mL+1 μg/mL for 18 hrs to stimulate IL-12 • c. Cells were exposed to stimulator PMA+Ionomycin at 50 ng/mL+1 μg/mL for 18 hrs to stimulate IL-23, IL-22, IL-17A, IL-17F
(§4) After 18 hrs supernatants were collected and centrifuged to remove any cell debris and aliquots were used for ELISA.

Human IL-17F = assay: IL-17F release from stimulated PBMCs, ELISA; assay type: cell-based; conditions: PMA+Ionomycin, 18 hrs
Protocol: as §2, §3, §4

Human IL-6 = assay: IL-6 release from stimulated PBMCs, ELISA; assay type: cell-based; conditions: LPS 100 ng/mL, 18 hrs
Protocol: as §2, §3, §4

Human IL-10 = assay: IL-10 release from stimulated PBMCs, ELISA; assay type: cell-based; conditions: LPS 100 ng/mL, 18 hrs
Protocol: as §2, §3, §4

Human IFN-γ = assay: IFN-γ release from stimulated PBMCs, ELISA; assay type: cell-based; conditions: LPS 100 ng/mL, 18 hrs
Protocol: as §2, §3, §4

Human IL-1β = assay: IL-1β release from stimulated PBMCs, ELISA; assay type: cell-based; conditions: LPS 100 ng/mL, 18 hrs
Protocol: as §2, §3, §4

HaCaT cells [2] = assay: Cell viability of HaCaT cells, Alamar blue; assay type: cell-based, human
Protocol: (§5) HaCaT cells were maintained in T-75 cm2 flask in Dulbecco's modified Eagle medium supplemented with FBS (10%), L-glutamine (2 mM), penicillin (100 ug/ml), streptomycin (100 ug/ml) at 37° C. in 5% CO2 incubator. Cell growth was maintained to 70-80% confluence for seeding and vehicle used was 1% DMSO. The cell viability was checked at various time points using Alamar blue and fluorescence readings were taken at excitation of 544 nm and emission of 590 nm.

TNF-α = TNF-α release from stimulated HaCaT cells, ELISA; assay type: cell-based, human; conditions: IFN-γ 50 ng/mL, 48 hrs
Protocol: as §5
(§6) HaCaT cells were stimulated with different stimulators as follows: • a. Cells were exposed to stimulator LPS at 1 μg/mL for 48 hrs to stimulate IL-1β • b. Cells were exposed to stimulator IFN-γ at 50 ng/mL for 48 hrs to stimulate TNF-α, IL-6
(§7) After 48 hrs supernatants were collected and centrifuged to remove any cell debris and aliquots were used for ELISA.

IL-6 = IL-6 release from stimulated HaCaT cells, ELISA; assay type: cell-based, human; conditions: IFN-γ 50 ng/mL, 48 hrs
Protocol: as §5, §6, §7

Chain of PDE2A (O00408 whole entry, species assumed): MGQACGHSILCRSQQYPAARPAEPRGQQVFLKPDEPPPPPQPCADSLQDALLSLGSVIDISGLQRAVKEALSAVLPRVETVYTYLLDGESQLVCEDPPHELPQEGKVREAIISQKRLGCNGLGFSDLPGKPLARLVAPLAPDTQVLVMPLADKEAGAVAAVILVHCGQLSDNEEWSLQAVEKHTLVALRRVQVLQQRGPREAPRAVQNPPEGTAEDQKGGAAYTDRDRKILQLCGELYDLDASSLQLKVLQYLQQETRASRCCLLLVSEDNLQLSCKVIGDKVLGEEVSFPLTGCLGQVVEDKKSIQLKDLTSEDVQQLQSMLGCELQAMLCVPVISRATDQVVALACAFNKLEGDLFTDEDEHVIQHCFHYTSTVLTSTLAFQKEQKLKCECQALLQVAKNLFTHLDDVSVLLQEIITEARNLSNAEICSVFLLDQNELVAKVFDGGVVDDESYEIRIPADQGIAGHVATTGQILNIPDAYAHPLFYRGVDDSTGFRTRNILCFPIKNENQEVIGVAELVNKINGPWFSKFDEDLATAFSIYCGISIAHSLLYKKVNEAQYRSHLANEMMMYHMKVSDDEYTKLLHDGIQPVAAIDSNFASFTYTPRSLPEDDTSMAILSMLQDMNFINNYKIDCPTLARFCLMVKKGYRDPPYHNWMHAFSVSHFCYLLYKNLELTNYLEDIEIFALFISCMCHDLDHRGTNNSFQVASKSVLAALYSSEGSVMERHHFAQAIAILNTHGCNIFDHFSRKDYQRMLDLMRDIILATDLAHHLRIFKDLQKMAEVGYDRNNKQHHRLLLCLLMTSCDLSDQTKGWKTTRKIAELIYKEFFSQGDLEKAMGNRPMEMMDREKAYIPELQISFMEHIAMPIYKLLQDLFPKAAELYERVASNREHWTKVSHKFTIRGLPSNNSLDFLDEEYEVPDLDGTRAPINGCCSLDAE
Chain of PDE4B (Q07343 whole entry, species assumed): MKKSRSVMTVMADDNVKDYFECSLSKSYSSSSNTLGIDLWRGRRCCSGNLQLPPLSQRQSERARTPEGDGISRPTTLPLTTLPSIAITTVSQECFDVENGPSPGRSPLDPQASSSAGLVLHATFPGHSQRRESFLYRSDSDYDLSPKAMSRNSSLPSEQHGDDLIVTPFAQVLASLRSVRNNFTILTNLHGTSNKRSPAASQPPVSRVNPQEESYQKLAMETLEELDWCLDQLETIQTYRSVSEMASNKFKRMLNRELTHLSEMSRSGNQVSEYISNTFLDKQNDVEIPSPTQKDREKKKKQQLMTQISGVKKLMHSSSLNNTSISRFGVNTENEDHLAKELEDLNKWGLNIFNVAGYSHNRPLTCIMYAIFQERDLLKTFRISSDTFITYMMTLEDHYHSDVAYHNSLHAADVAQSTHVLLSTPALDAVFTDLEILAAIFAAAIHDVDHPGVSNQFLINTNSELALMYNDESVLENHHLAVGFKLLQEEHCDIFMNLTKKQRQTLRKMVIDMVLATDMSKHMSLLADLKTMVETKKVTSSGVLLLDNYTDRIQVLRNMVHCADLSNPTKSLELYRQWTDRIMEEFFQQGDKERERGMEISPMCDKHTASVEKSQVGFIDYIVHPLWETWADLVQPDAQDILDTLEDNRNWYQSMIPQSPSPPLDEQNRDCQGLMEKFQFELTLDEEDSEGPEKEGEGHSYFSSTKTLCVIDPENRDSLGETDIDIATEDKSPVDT

IC50 (PDE2A): 67.5 µM
IC50 (PDE4B): > 500 µM
SMILES: CC(=O)Oc1ccccc1C(=O)Nc1ncc([N+](=O)[O-])s1 [Nitazoxanide]
Cell proliferation (% of Control) (HaCaT cells [1]; 0.01 μM, 24 h): 126.3 % of Control
Cell proliferation (% of Control) (HaCaT cells [1]; 0.01 μM, 48 h): 113.7 % of Control
Cell proliferation (% of Control) (HaCaT cells [1]; 0.01 μM, 72 h): 114.6 % of Control
Cell proliferation (% of Control) (HaCaT cells [1]; 0.1 μM, 24 h): 114.3 % of Control
Cell proliferation (% of Control) (HaCaT cells [1]; 0.1 μM, 48 h): 115.2 % of Control
Cell proliferation (% of Control) (HaCaT cells [1]; 0.1 μM, 72 h): 102.4 % of Control
Cell proliferation (% of Control) (HaCaT cells [1]; 0.5 μM, 24 h): 120.3 % of Control
Cell proliferation (% of Control) (HaCaT cells [1]; 0.5 μM, 48 h): 113.4 % of Control
Cell proliferation (% of Control) (HaCaT cells [1]; 0.5 μM, 72 h): 106.2 % of Control
Cell proliferation (% of Control) (HaCaT cells [1]; 1 μM, 24 h): 123 % of Control
Cell proliferation (% of Control) (HaCaT cells [1]; 1 μM, 48 h): 110.8 % of Control
Cell proliferation (% of Control) (HaCaT cells [1]; 1 μM, 72 h): 101.7 % of Control
Cell proliferation (% of Control) (HaCaT cells [1]; 5 μM, 24 h): 121.6 % of Control
Cell proliferation (% of Control) (HaCaT cells [1]; 5 μM, 48 h): 91.8 % of Control
Cell proliferation (% of Control) (HaCaT cells [1]; 5 μM, 72 h): 82.9 % of Control
Cell proliferation (% of Control) (HaCaT cells [1]; 10 μM, 24 h): 103.8 % of Control
Cell proliferation (% of Control) (HaCaT cells [1]; 10 μM, 48 h): 77 % of Control
Cell proliferation (% of Control) (HaCaT cells [1]; 10 μM, 72 h): 69.5 % of Control
Cell proliferation (% of Control) (HaCaT cells [1]; 50 μM, 24 h): 92.6 % of Control
Cell proliferation (% of Control) (HaCaT cells [1]; 50 μM, 48 h): 69.6 % of Control
Cell proliferation (% of Control) (HaCaT cells [1]; 50 μM, 72 h): 49.6 % of Control
Cell proliferation (% of Control) (HaCaT cells [1]; 100 μM, 24 h): 89.7 % of Control
Cell proliferation (% of Control) (HaCaT cells [1]; 100 μM, 48 h): 61 % of Control
Cell proliferation (% of Control) (HaCaT cells [1]; 100 μM, 72 h): 33.1 % of Control
IC50 (HaCaT cells [1]; Homo sapiens, HaCaT, 72 h, read-out: IC50 of cell proliferation): 39.9 µM
% Viability (±S.E.M.) (human PBMCs; 0.01 μM, 24 hrs): 97 ± 1%
% Viability (±S.E.M.) (human PBMCs; 0.01 μM, 48 hrs): 106 ± 8%
% Viability (±S.E.M.) (human PBMCs; 0.01 μM, 72 hrs): 113 ± 10%
% Viability (±S.E.M.) (human PBMCs; 1 μM, 24 hrs): 91 ± 2%
% Viability (±S.E.M.) (human PBMCs; 1 μM, 48 hrs): 105 ± 7%
% Viability (±S.E.M.) (human PBMCs; 1 μM, 72 hrs): 106 ± 2%
% Viability (±S.E.M.) (human PBMCs; 100 μM, 24 hrs): 76 ± 4%
% Viability (±S.E.M.) (human PBMCs; 100 μM, 48 hrs): 42 ± 4%
% Viability (±S.E.M.) (human PBMCs; 100 μM, 72 hrs): 11 ± 3%
Concentration which exhibited cell viability of 70% (human PBMCs; PBMCs, maximum concentration for stimulation study): 50 µM
Human IL-17A concentration (Human IL-17A; 1 μM): 39 pg/mL
Human IL-17A concentration (Human IL-17A; 10 μM): 0 pg/mL
Human IL-17A concentration (Human IL-17A; 25 μM): 0 pg/mL
Human IL-17A concentration (Human IL-17A; 50 μM): 0 pg/mL
Human IL-17F concentration (Human IL-17F; 1 μM): 166 pg/mL
Human IL-17F concentration (Human IL-17F; 10 μM): 0 pg/mL
Human IL-17F concentration (Human IL-17F; 25 μM): 0 pg/mL
Human IL-17F concentration (Human IL-17F; 50 μM): 0 pg/mL
Human IL-6 concentration (Human IL-6; 1 μM): 5520 pg/mL
Human IL-6 concentration (Human IL-6; 10 μM): 5342 pg/mL
Human IL-6 concentration (Human IL-6; 25 μM): 3567 pg/mL
Human IL-6 concentration (Human IL-6; 50 μM): 2531 pg/mL
Human IL-10 concentration (Human IL-10; 1 μM): 1799 pg/mL
Human IL-10 concentration (Human IL-10; 10 μM): 512 pg/mL
Human IL-10 concentration (Human IL-10; 25 μM): 76 pg/mL
Human IL-10 concentration (Human IL-10; 50 μM): 42 pg/mL
Human IFN-γ concentration (Human IFN-γ; 1 μM): 217 pg/mL
Human IFN-γ concentration (Human IFN-γ; 25 μM): 152 pg/mL
Human IFN-γ concentration (Human IFN-γ; 50 μM): 191 pg/mL
Human IL-1β concentration (Human IL-1β; 1 μM): 4470 pg/mL
Human IL-1β concentration (Human IL-1β; 10 μM): 3971 pg/mL
Human IL-1β concentration (Human IL-1β; 25 μM): 3203 pg/mL
Human IL-1β concentration (Human IL-1β; 50 μM): 2506 pg/mL
% Viability (±S.E.M.) (HaCaT cells [2]; 0.1 μM, 24 hrs): 89 ± 1%
% Viability (±S.E.M.) (HaCaT cells [2]; 0.1 μM, 48 hrs): 99 ± 9%
% Viability (±S.E.M.) (HaCaT cells [2]; 0.1 μM, 72 hrs): 103 ± 3%
% Viability (±S.E.M.) (HaCaT cells [2]; 1 μM, 24 hrs): 81 ± 3%
% Viability (±S.E.M.) (HaCaT cells [2]; 1 μM, 48 hrs): 86 ± 8%
% Viability (±S.E.M.) (HaCaT cells [2]; 1 μM, 72 hrs): 91 ± 2%
% Viability (±S.E.M.) (HaCaT cells [2]; 10 μM, 24 hrs): 41 ± 1%
% Viability (±S.E.M.) (HaCaT cells [2]; 10 μM, 48 hrs): 40 ± 2%
% Viability (±S.E.M.) (HaCaT cells [2]; 10 μM, 72 hrs): 46 ± 3%
% Viability (±S.E.M.) (HaCaT cells [2]; 50 μM, 24 hrs): 18 ± 1%
% Viability (±S.E.M.) (HaCaT cells [2]; 50 μM, 48 hrs): 15 ± 2%
% Viability (±S.E.M.) (HaCaT cells [2]; 50 μM, 72 hrs): 18 ± 1%
% Viability (±S.E.M.) (HaCaT cells [2]; 100 μM, 24 hrs): 17 ± 1%
% Viability (±S.E.M.) (HaCaT cells [2]; 100 μM, 48 hrs): 13 ± 1%
% Viability (±S.E.M.) (HaCaT cells [2]; 100 μM, 72 hrs): 17 ± 1%
Concentration which exhibited cell viability of 70% (HaCaT cells [2]; HaCaT cells, maximum concentration for stimulation study): 1 µM
TNF-α Conc. (TNF-α; 0.1 μM): 3 ± 0.2 pg/mL
TNF-α Conc. (TNF-α; 0.5 μM): 2.5 ± 0.5 pg/mL
TNF-α Conc. (TNF-α; 1 μM): 2.3 ± 0.4 pg/mL
IL-6 Conc. (IL-6; 0.1 μM): 83 ± 1 pg/mL
IL-6 Conc. (IL-6; 0.5 μM): 79 ± 4 pg/mL
IL-6 Conc. (IL-6; 1 μM): 70 ± 4 pg/mL
